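How tested: cells in 96-well plates exposed to compound for 48 hours at five concentrations. At the TGI there is no net growth.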
Assays:
Assay in all cases: NCI tumour cell line growth inhibition, 48 h
HL-60(TB) leukemia = tested on: HL-60(TB) leukemia
HOP-62 NSCLC = tested on: HOP-62 NSCLC
NCI-H226 lung = tested on: NCI-H226 lung
EKVX NSCLC = tested on: EKVX NSCLC
CCRF-CEM leukemia = tested on: CCRF-CEM leukemia
DU-145 prostate = tested on: DU-145 prostate
IGROV1 ovarian = tested on: IGROV1 ovarian
A498 renal = tested on: A498 renal
HCC-2998 colon = tested on: HCC-2998 colon
OVCAR-4 ovarian = tested on: OVCAR-4 ovarian
ACHN renal = tested on: ACHN renal
RPMI-8226 leukemia = tested on: RPMI-8226 leukemia
COLO 205 colon = tested on: COLO 205 colon
HCT-116 colon = tested on: HCT-116 colon
UACC-257 melanoma = tested on: UACC-257 melanoma
SK-MEL-2 melanoma = tested on: SK-MEL-2 melanoma
MDA-N = tested on: MDA-N
MDA-MB-435 = tested on: MDA-MB-435
OVCAR-8 ovarian = tested on: OVCAR-8 ovarian
M14 melanoma = tested on: M14 melanoma
U251 CNS = tested on: U251 CNS
SNB-75 CNS = tested on: SNB-75 CNS
OVCAR-3 ovarian = tested on: OVCAR-3 ovarian
NCI-H23 lung = tested on: NCI-H23 lung
SW-620 colon = tested on: SW-620 colon
TK-10 renal = tested on: TK-10 renal
MDA-MB-231 breast = tested on: MDA-MB-231 breast
HS 578T breast = tested on: HS 578T breast
SK-OV-3 ovarian = tested on: SK-OV-3 ovarian
MCF7 breast = tested on: MCF7 breast
SF-295 CNS = tested on: SF-295 CNS
CAKI-1 renal = tested on: CAKI-1 renal
MALME-3M melanoma = tested on: MALME-3M melanoma
SR leukemia = tested on: SR leukemia
KM12 colon = tested on: KM12 colon
PC-3 prostate = tested on: PC-3 prostate
T-47D breast = tested on: T-47D breast
SNB-19 CNS = tested on: SNB-19 CNS
NCI/ADR-RES ovarian = tested on: NCI/ADR-RES ovarian
786-0 renal = tested on: 786-0 renal
SF-268 CNS = tested on: SF-268 CNS
UO-31 renal = tested on: UO-31 renal
K-562 leukemia = tested on: K-562 leukemia
NCI-H522 lung = tested on: NCI-H522 lung
BT-549 breast = tested on: BT-549 breast
OVCAR-5 ovarian = tested on: OVCAR-5 ovarian
SN12C renal = tested on: SN12C renal
HT29 colon = tested on: HT29 colon
LOX IMVI melanoma = tested on: LOX IMVI melanoma
NCI-H460 lung = tested on: NCI-H460 lung
A549 NSCLC = tested on: A549 NSCLC
SK-MEL-5 melanoma = tested on: SK-MEL-5 melanoma
HCT-15 colon = tested on: HCT-15 colon
UACC-62 melanoma = tested on: UACC-62 melanoma
MOLT-4 leukemia = tested on: MOLT-4 leukemia
SF-539 CNS = tested on: SF-539 CNS
SK-MEL-28 melanoma = tested on: SK-MEL-28 melanoma
RXF 393 renal = tested on: RXF 393 renal
HOP-92 NSCLC = tested on: HOP-92 NSCLC

## NC(=O)c1nnc2cc(F)c(F)cc2c1N
HL-60(TB) leukemia
  TGI: > 100 µM
HOP-62 NSCLC
  TGI: 39.6 µM
NCI-H226 lung
  TGI: 73.6 µM
EKVX NSCLC
  TGI: > 100 µM
CCRF-CEM leukemia
  TGI: > 100 µM
DU-145 prostate
  TGI: > 100 µM
IGROV1 ovarian
  TGI: > 100 µM
A498 renal
  TGI: > 100 µM
HCC-2998 colon
  TGI: > 100 µM
OVCAR-4 ovarian
  TGI: > 100 µM
ACHN renal
  TGI: > 100 µM
RPMI-8226 leukemia
  TGI: > 100 µM
COLO 205 colon
  TGI: > 100 µM
HCT-116 colon
  TGI: > 100 µM
UACC-257 melanoma
  TGI: > 100 µM
SK-MEL-2 melanoma
  TGI: 38.5 µM
MDA-N
  TGI: > 100 µM
MDA-MB-435
  TGI: > 100 µM
OVCAR-8 ovarian
  TGI: > 100 µM
M14 melanoma
  TGI: > 100 µM
U251 CNS
  TGI: 69.7 µM
SNB-75 CNS
  TGI: 31.8 µM
OVCAR-3 ovarian
  TGI: > 100 µM
NCI-H23 lung
  TGI: > 100 µM
SW-620 colon
  TGI: > 100 µM
TK-10 renal
  TGI: > 100 µM
MDA-MB-231 breast
  TGI: > 100 µM
HS 578T breast
  TGI: 84.4 µM
SK-OV-3 ovarian
  TGI: 82.4 µM
MCF7 breast
  TGI: > 100 µM
SF-295 CNS
  TGI: 64.5 µM
CAKI-1 renal
  TGI: > 100 µM
MALME-3M melanoma
  TGI: > 100 µM
SR leukemia
  TGI: > 100 µM
KM12 colon
  TGI: > 100 µM
PC-3 prostate
  TGI: > 100 µM
T-47D breast
  TGI: > 100 µM
SNB-19 CNS
  TGI: > 100 µM
NCI/ADR-RES ovarian
  TGI: > 100 µM
786-0 renal
  TGI: > 100 µM
SF-268 CNS
  TGI: 49.9 µM
UO-31 renal
  TGI: > 100 µM
K-562 leukemia
  TGI: > 100 µM
NCI-H522 lung
  TGI: 56.8 µM
BT-549 breast
  TGI: 45.6 µM
OVCAR-5 ovarian
  TGI: > 100 µM
SN12C renal
  TGI: > 100 µM
HT29 colon
  TGI: > 100 µM
LOX IMVI melanoma
  TGI: > 100 µM
NCI-H460 lung
  TGI: > 100 µM
A549 NSCLC
  TGI: > 100 µM
SK-MEL-5 melanoma
  TGI: > 100 µM
HCT-15 colon
  TGI: > 100 µM
UACC-62 melanoma
  TGI: > 100 µM
MOLT-4 leukemia
  TGI: > 100 µM
SF-539 CNS
  TGI: > 100 µM

## C/C=C1/CN2CC[C@@H]3c4ccccc4N4[C@H](C(=O)OC)[C@H]1C[C@H]2[C@]34/C=C/C1=COC[C@@H]2[C@H]1C[C@H]1c3c(c4ccccc4n3C)C[C@@H]2N1C
HOP-62 NSCLC
  TGI: 7.29 µM
NCI-H226 lung
  TGI: 9.16 µM
EKVX NSCLC
  TGI: 6.17 µM
CCRF-CEM leukemia
  TGI: 9.49 µM
DU-145 prostate
  TGI: 11.9 µM
IGROV1 ovarian
  TGI: 8.81 µM
A498 renal
  TGI: 10 µM
HCC-2998 colon
  TGI: 1.31 µM
OVCAR-4 ovarian
  TGI: 6.88 µM
ACHN renal
  TGI: 7.43 µM
RPMI-8226 leukemia
  TGI: 8.33 µM
COLO 205 colon
  TGI: 6.62 µM
HCT-116 colon
  TGI: 7.61 µM
UACC-257 melanoma
  TGI: 8.51 µM
SK-MEL-2 melanoma
  TGI: 8.14 µM
MDA-N
  TGI: 5.41 µM
MDA-MB-435
  TGI: 7.18 µM
OVCAR-8 ovarian
  TGI: 8.04 µM
M14 melanoma
  TGI: 7.9 µM
U251 CNS
  TGI: 7.65 µM
OVCAR-3 ovarian
  TGI: 9.66 µM
NCI-H23 lung
  TGI: 8.43 µM
SW-620 colon
  TGI: 7.6 µM
TK-10 renal
  TGI: 7.5 µM
MDA-MB-231 breast
  TGI: 8.93 µM
HS 578T breast
  TGI: 8.93 µM
SK-OV-3 ovarian
  TGI: 8.06 µM
MCF7 breast
  TGI: 8.67 µM
SF-295 CNS
  TGI: 8.18 µM
CAKI-1 renal
  TGI: 7.89 µM
MALME-3M melanoma
  TGI: 8.5 µM
SR leukemia
  TGI: 19.3 µM
PC-3 prostate
  TGI: 6.09 µM
T-47D breast
  TGI: 8.68 µM
SNB-19 CNS
  TGI: 7.39 µM
NCI/ADR-RES ovarian
  TGI: 6.69 µM
SF-268 CNS
  TGI: 7.16 µM
UO-31 renal
  TGI: 7.98 µM
K-562 leukemia
  TGI: 25 µM
BT-549 breast
  TGI: 8.05 µM
OVCAR-5 ovarian
  TGI: 7.99 µM
SN12C renal
  TGI: 9.17 µM
HT29 colon
  TGI: 5.92 µM
LOX IMVI melanoma
  TGI: 8.74 µM
NCI-H460 lung
  TGI: 7.41 µM
SK-MEL-28 melanoma
  TGI: 8.88 µM
A549 NSCLC
  TGI: 8.28 µM
SK-MEL-5 melanoma
  TGI: 7.48 µM
HCT-15 colon
  TGI: 7.83 µM
RXF 393 renal
  TGI: 7.9 µM
HOP-92 NSCLC
  TGI: 9 µM
UACC-62 melanoma
  TGI: 9.29 µM
MOLT-4 leukemia
  TGI: 13.4 µM
SF-539 CNS
  TGI: 7.61 µM

Reference: PubChem BioAssay (NCI)
